Starred links: 1 amine or outer side, 2 acyl side, 3 side chain; linkers in the order of their positions; H or OH if unused. Non-standard residues stand in square brackets, D forms with d. Residues, ends and D or L forms follow the SMILES beside them. Groups on a side chain read outwards from the residue. *: point of attachment. Phe(4-CH2NH2) = NCc1ccc(C[C@H](N)C(=O)O)cc1; C19 diacid = O=C(O)CCCCCCCCCCCCCCCCCC(=O)*; C18 diacid = O=C(O)CCCCCCCCCCCCCCCCC(=O)*; C17 diacid = O=C(O)CCCCCCCCCCCCCCCC(=O)*; γGlu = O=C(O)[C@H](CCC(=O)[*:2])N[*:1]; C14 diacid = O=C(O)CCCCCCCCCCCCC(=O)*; Met(O2) = CS(=O)(=O)CC[C@H](N)C(=O)O; αMeD = C[C@](N)(CC(=O)O)C(=O)O; AEEA = NCCOCCOCC(=O)O; Aib = CC(C)(N)C(=O)O
Key:
human GCGR = biological target: T1, human GCGR (Homo sapiens, UniProt P47871); assay: cAMP activity assay, cells expressing human GCGR; format: cell-based; conditions: for EC50: cAMP production, cells expressing human GCGR, assay buffer with or without 20% human serum (not stated which), read-out: GCGR EC50 human; for hGCGR/hGLP1R (hTone): ratio of human GCGR EC50 to human GLP1R EC50
T1 construct: expressed in transfected cells; kept under Blasticidin and Hygromycin selection
T1 sequence (P47871 26-477): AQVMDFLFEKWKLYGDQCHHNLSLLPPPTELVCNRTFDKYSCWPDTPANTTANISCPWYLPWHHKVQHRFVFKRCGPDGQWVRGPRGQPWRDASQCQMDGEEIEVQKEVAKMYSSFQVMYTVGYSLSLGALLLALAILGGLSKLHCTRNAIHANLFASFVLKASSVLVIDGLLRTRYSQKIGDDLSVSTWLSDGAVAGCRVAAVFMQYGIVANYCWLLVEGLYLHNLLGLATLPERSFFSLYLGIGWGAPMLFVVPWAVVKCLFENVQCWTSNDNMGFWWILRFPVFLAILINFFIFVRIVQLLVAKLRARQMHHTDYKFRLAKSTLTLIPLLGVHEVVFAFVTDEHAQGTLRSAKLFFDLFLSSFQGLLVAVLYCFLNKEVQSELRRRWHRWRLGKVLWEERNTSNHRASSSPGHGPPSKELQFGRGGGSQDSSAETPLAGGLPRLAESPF
In short: (§1)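 cAMP production in human GLP1R- or GCGR-expressing cells was read by luminescence after overnight dark incubation at room temperature. Peptides were given as 10-point DMSO dilution series, with native GLP-1 and glucagon as references. Four-parameter logistic fitting gave EC50.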

human GLP1R = biological target: T2, human GLP1R (Homo sapiens, UniProt P43220); assay: cAMP activity assay, cells expressing human GLP1R; format: cell-based; conditions: cAMP production, assay buffer with or without 20% human serum (not stated which)
T2 construct: expressed in transfected cells; kept under Blasticidin and Hygromycin selection
T2 sequence (P43220 24-463): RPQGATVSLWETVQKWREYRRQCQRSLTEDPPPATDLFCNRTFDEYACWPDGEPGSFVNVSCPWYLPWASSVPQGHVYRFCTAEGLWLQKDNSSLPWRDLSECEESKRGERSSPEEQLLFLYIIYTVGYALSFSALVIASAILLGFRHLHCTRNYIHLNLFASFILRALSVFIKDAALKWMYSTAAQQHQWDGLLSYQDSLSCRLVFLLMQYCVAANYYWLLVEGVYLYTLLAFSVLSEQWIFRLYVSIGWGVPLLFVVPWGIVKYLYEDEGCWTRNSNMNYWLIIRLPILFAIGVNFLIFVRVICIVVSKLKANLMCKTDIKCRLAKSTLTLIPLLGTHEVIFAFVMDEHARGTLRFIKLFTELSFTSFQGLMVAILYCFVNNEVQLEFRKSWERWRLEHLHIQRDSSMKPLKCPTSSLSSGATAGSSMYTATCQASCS
In short: as §1

SMILES	EC50 (human GCGR) [nM]	hGCGR/hGLP1R (hTone) (human GCGR)	EC50 (human GLP1R) [nM]
CC(C)C[C@H](NC(=O)[C@H](Cc1ccc(O)cc1)NC(=O)[C@H](CCCCN)NC(=O)[C@H](CO)NC(=O)[C@H](Cc1ccc(O)cc1)NC(=O)[C@H](CC(=O)O)NC(=O)[C@H](CO)NC(=O)[C@@H](NC(=O)[C@H](Cc1ccccc1)NC(=O)[C@@H](NC(=O)CNC(=O)[C@H](CCC(N)=O)NC(=O)C(C)(C)NC(=O)[C@@H](N)Cc1c[nH]cn1)[C@@H](C)O)[C@@H](C)O)C(=O)N[C@@H](CC(=O)O)C(=O)N[C@@H](C)C(=O)N[C@@H](CCCNC(=N)N)C(=O)N[C@@H](C)C(=O)N[C@@H](C)C(=O)N[C@@H](CCC(N)=O)C(=O)N[C@@H](CCCCNC(=O)COCCOCCNC(=O)COCCOCCNC(=O)CC[C@H](NC(=O)CCCCCCCCCCCCCCCC(=O)O)C(=O)O)C(=O)N[C@@H](Cc1ccccc1)C(=O)N[C@H](C(=O)N[C@@H](CCC(N)=O)C(=O)N[C@@H](Cc1c[nH]c2ccccc12)C(=O)N[C@@H](CC(C)C)C(=O)N[C@@H](CCS(C)(=O)=O)C(=O)N[C@@H](CC(=O)O)C(=O)N[C@H](C(N)=O)[C@@H](C)O)C(C)C [compound 48] (H-H[Aib]QGTFTSDYSKYLDARAAQK([AEEA-AEEA-γGlu-C17 diacid])FVQWL[Met(O2)]DT-NH2)	0.05	1.10	0.05
CC(C)C[C@H](NC(=O)[C@H](Cc1ccc(O)cc1)NC(=O)[C@H](CCCCN)NC(=O)[C@H](CO)NC(=O)[C@H](Cc1ccc(O)cc1)NC(=O)[C@H](CC(=O)O)NC(=O)[C@H](CO)NC(=O)[C@@H](NC(=O)[C@H](Cc1ccccc1)NC(=O)[C@@H](NC(=O)CNC(=O)[C@H](CCC(N)=O)NC(=O)C(C)(C)NC(=O)[C@@H](N)Cc1c[nH]cn1)[C@@H](C)O)[C@@H](C)O)C(=O)N[C@@H](CC(=O)O)C(=O)N[C@@H](C)C(=O)N[C@@H](CCCNC(=N)N)C(=O)N[C@@H](C)C(=O)N[C@@H](C)C(=O)N[C@@H](CCCCNC(=O)COCCOCCNC(=O)COCCOCCNC(=O)CC[C@H](NC(=O)CCCCCCCCCCCCC(=O)O)C(=O)O)C(=O)N[C@@H](CC(=O)O)C(=O)N[C@@H](Cc1ccccc1)C(=O)N[C@H](C(=O)N[C@@H](CCC(N)=O)C(=O)N[C@@H](Cc1c[nH]c2ccccc12)C(=O)N[C@@H](CC(C)C)C(=O)N[C@@H](CCS(C)(=O)=O)C(=O)N[C@@H](CC(=O)O)C(=O)N[C@H](C(N)=O)[C@@H](C)O)C(C)C [compound 49] (H-H[Aib]QGTFTSDYSKYLDARAAK([AEEA-AEEA-γGlu-C14 diacid])DFVQWL[Met(O2)]DT-NH2)	0.04	1.91	0.02
CC(C)C[C@H](NC(=O)[C@H](Cc1c[nH]c2ccccc12)NC(=O)[C@H](CCCCNC(=O)COCCOCCNC(=O)COCCOCCNC(=O)CC[C@H](NC(=O)CCCCCCCCCCCCCCCCC(=O)O)C(=O)O)NC(=O)[C@@H](NC(=O)[C@H](Cc1ccccc1)NC(=O)[C@H](CC(=O)O)NC(=O)[C@H](CCC(N)=O)NC(=O)[C@H](C)NC(=O)[C@H](C)NC(=O)[C@H](CCCNC(=N)N)NC(=O)C(C)(C)NC(=O)[C@H](CC(=O)O)NC(=O)[C@H](CC(C)C)NC(=O)[C@H](Cc1ccc(O)cc1)NC(=O)[C@H](CCCCN)NC(=O)[C@H](CO)NC(=O)[C@H](Cc1ccc(O)cc1)NC(=O)[C@H](CC(=O)O)NC(=O)[C@H](CO)NC(=O)[C@@H](NC(=O)[C@H](Cc1ccccc1)NC(=O)[C@@H](NC(=O)CNC(=O)[C@H](CCC(N)=O)NC(=O)C(C)(C)NC(=O)[C@@H](N)Cc1c[nH]cn1)[C@@H](C)O)[C@@H](C)O)C(C)C)C(=O)N[C@@H](CCS(C)(=O)=O)C(=O)N[C@@H](CC(=O)O)C(=O)N[C@H](C(N)=O)[C@@H](C)O [compound 68] (H-H[Aib]QGTFTSDYSKYLD[Aib]RAAQDFVK([AEEA-AEEA-γGlu-C18 diacid])WL[Met(O2)]DT-NH2)	0.595	0.7	0.866
CC(C)C[C@H](NC(=O)[C@H](Cc1ccc(O)cc1)NC(=O)[C@H](CCCCN)NC(=O)[C@H](CO)NC(=O)[C@H](Cc1ccc(O)cc1)NC(=O)[C@H](CC(=O)O)NC(=O)[C@H](CO)NC(=O)[C@@H](NC(=O)[C@H](Cc1ccccc1)NC(=O)[C@@H](NC(=O)CNC(=O)[C@H](CCC(N)=O)NC(=O)C(C)(C)NC(=O)[C@@H](N)Cc1c[nH]cn1)[C@@H](C)O)[C@@H](C)O)C(=O)N[C@@H](CC(=O)O)C(=O)N[C@@H](C)C(=O)N[C@@H](CCCCN)C(=O)N[C@@H](C)C(=O)N[C@@H](C)C(=O)N[C@@H](CCCCNC(=O)COCCOCCNC(=O)COCCOCCNC(=O)CC[C@H](NC(=O)CCCCCCCCCCCCCCCCC(=O)O)C(=O)O)C(=O)N[C@@H](CC(=O)O)C(=O)N[C@@H](Cc1ccccc1)C(=O)N[C@H](C(=O)N[C@@H](CCC(N)=O)C(=O)N[C@@H](Cc1c[nH]c2ccccc12)C(=O)N[C@@H](CC(C)C)C(=O)N[C@@H](CCS(C)(=O)=O)C(=O)N[C@@H](CC(=O)O)C(=O)N[C@H](C(N)=O)[C@@H](C)O)C(C)C [compound 70] (H-H[Aib]QGTFTSDYSKYLDAKAAK([AEEA-AEEA-γGlu-C18 diacid])DFVQWL[Met(O2)]DT-NH2; N-terminus assumed)	1.1	2.3	0.5
CC(C)C[C@H](NC(=O)[C@H](Cc1ccc(O)cc1)NC(=O)[C@H](CCCCN)NC(=O)[C@H](CO)NC(=O)[C@H](Cc1ccc(O)cc1)NC(=O)[C@H](CC(=O)O)NC(=O)[C@H](CO)NC(=O)[C@@H](NC(=O)[C@H](Cc1ccccc1)NC(=O)[C@@H](NC(=O)CNC(=O)[C@H](CCC(N)=O)NC(=O)C(C)(C)NC(=O)[C@@H](N)Cc1c[nH]cn1)[C@@H](C)O)[C@@H](C)O)C(=O)N[C@@H](CC(=O)O)C(=O)N[C@@H](C)C(=O)N[C@@H](CCCNC(=N)N)C(=O)N[C@@H](C)C(=O)N[C@@H](C)C(=O)N[C@@H](CCC(N)=O)C(=O)N[C@@H](CCCCNC(=O)COCCOCCNC(=O)COCCOCCNC(=O)CC[C@H](NC(=O)CCCCCCCCCCCCCCCCC(=O)O)C(=O)O)C(=O)N[C@@H](Cc1ccccc1)C(=O)N[C@H](C(=O)N[C@@H](CCC(N)=O)C(=O)N[C@@H](Cc1c[nH]c2ccccc12)C(=O)N[C@@H](CC(C)C)C(=O)N[C@@H](CCS(C)(=O)=O)C(=O)N[C@@](C)(CC(=O)O)C(=O)N[C@H](C(N)=O)[C@@H](C)O)C(C)C [compound 71] (H-H[Aib]QGTFTSDYSKYLDARAAQK([AEEA-AEEA-γGlu-C18 diacid])FVQWL[Met(O2)][αMeD]T-NH2)	0.13	1	0.17

Continued by falling EC50 (human GCGR), values first:

EC50 (human GCGR) [nM]	hGCGR/hGLP1R (hTone) (human GCGR)	EC50 (human GLP1R) [nM]	SMILES
0.86	0.6	1.39	CC(C)C[C@H](NC(=O)[C@H](Cc1ccc(O)cc1)NC(=O)[C@H](CCCCN)NC(=O)[C@H](CO)NC(=O)[C@H](Cc1ccc(O)cc1)NC(=O)[C@H](CC(=O)O)NC(=O)[C@H](CO)NC(=O)[C@@H](NC(=O)[C@H](Cc1ccccc1)NC(=O)[C@@H](NC(=O)CNC(=O)[C@H](CCC(N)=O)NC(=O)C(C)(C)NC(=O)[C@@H](N)Cc1c[nH]cn1)[C@@H](C)O)[C@@H](C)O)C(=O)N[C@@H](CC(=O)O)C(=O)N[C@@H](C)C(=O)N[C@@H](CCCNC(=N)N)C(=O)N[C@@H](C)C(=O)N[C@@H](C)C(=O)N[C@@H](CCCCNC(=O)COCCOCCNC(=O)COCCOCCNC(=O)CC[C@H](NC(=O)CCCCCCCCCCCCCCCCC(=O)O)C(=O)O)C(=O)N[C@@H](CC(=O)O)C(=O)N[C@@H](Cc1ccccc1)C(=O)N[C@H](C(=O)N[C@@H](CCC(N)=O)C(=O)N[C@@H](Cc1c[nH]c2ccccc12)C(=O)N[C@@H](CC(C)C)C(=O)N[C@@H](CCS(C)(=O)=O)C(=O)N[C@@](C)(CC(=O)O)C(=O)N[C@H](C(N)=O)[C@@H](C)O)C(C)C [compound 74] (H-H[Aib]QGTFTSDYSKYLDARAAK([AEEA-AEEA-γGlu-C18 diacid])DFVQWL[Met(O2)][αMeD]T-NH2)
0.5	1.83	0.28	CC(C)C[C@H](NC(=O)[C@H](Cc1ccc(O)cc1)NC(=O)[C@H](CCCCN)NC(=O)[C@H](CO)NC(=O)[C@H](Cc1ccc(O)cc1)NC(=O)[C@H](CC(=O)O)NC(=O)[C@H](CO)NC(=O)[C@@H](NC(=O)[C@H](Cc1ccccc1)NC(=O)[C@@H](NC(=O)CNC(=O)[C@H](CCC(N)=O)NC(=O)C(C)(C)NC(=O)[C@@H](N)Cc1c[nH]cn1)[C@@H](C)O)[C@@H](C)O)C(=O)N[C@@H](CC(=O)O)C(=O)N[C@@H](C)C(=O)N[C@@H](CCCNC(=N)N)C(=O)N[C@@H](C)C(=O)N[C@@H](C)C(=O)N[C@@H](CCC(N)=O)C(=O)N[C@@H](CCCCNC(=O)COCCOCCNC(=O)COCCOCCNC(=O)CC[C@H](NC(=O)CCCCCCCCCCCCCCCCCC(=O)O)C(=O)O)C(=O)N[C@@H](Cc1ccccc1)C(=O)N[C@H](C(=O)N[C@@H](CCC(N)=O)C(=O)N[C@@H](Cc1c[nH]c2ccccc12)C(=O)N[C@@H](CC(C)C)C(=O)N[C@@H](CCS(C)(=O)=O)C(=O)N[C@@H](CC(=O)O)C(=O)N[C@H](C(N)=O)[C@@H](C)O)C(C)C [compound 46] (H-H[Aib]QGTFTSDYSKYLDARAAQK([AEEA-AEEA-γGlu-C19 diacid])FVQWL[Met(O2)]DT-NH2; N-terminus assumed)
0.36	0.9	0.42	CC(C)C[C@H](NC(=O)[C@H](Cc1ccc(O)cc1)NC(=O)[C@H](CCCCN)NC(=O)[C@H](CO)NC(=O)[C@H](Cc1ccc(O)cc1)NC(=O)[C@H](CC(=O)O)NC(=O)[C@H](CO)NC(=O)[C@@H](NC(=O)[C@H](Cc1ccccc1)NC(=O)[C@@H](NC(=O)CNC(=O)[C@H](CCC(N)=O)NC(=O)C(C)(C)NC(=O)[C@@H](N)Cc1c[nH]cn1)[C@@H](C)O)[C@@H](C)O)C(=O)N[C@@H](CC(=O)O)C(=O)N[C@@H](C)C(=O)N[C@@H](CCCNC(=N)N)C(=O)N[C@@H](C)C(=O)N[C@@H](C)C(=O)N[C@@H](CCC(N)=O)C(=O)N[C@@H](Cc1ccc(CNC(=O)COCCOCCNC(=O)COCCOCCNC(=O)CC[C@H](NC(=O)CCCCCCCCCCCCCCCCC(=O)O)C(=O)O)cc1)C(=O)N[C@@H](Cc1ccccc1)C(=O)N[C@H](C(=O)N[C@@H](CCC(N)=O)C(=O)N[C@@H](Cc1c[nH]c2ccccc12)C(=O)N[C@@H](CC(C)C)C(=O)N[C@@H](CC(C)C)C(=O)N[C@@](C)(CC(=O)O)C(=O)N[C@H](C(N)=O)[C@@H](C)O)C(C)C [compound 75] (H-H[Aib]QGTFTSDYSKYLDARAAQ[Phe(4-CH2NH2)]([AEEA-AEEA-γGlu-C18 diacid])FVQWLL[αMeD]T-NH2)

— patent US11492385B2, “Long-acting co-agonists of the glucagon and GLP-1 receptors” (Merck Sharp & Dohme Corp., priority 2015, dated 2022)
